According to publication PMC6639853, “Deciphering Direct and Indirect Effects of Neurokinin B and GnRH in the Brain-Pituitary Axis of Tilapia” (Frontiers in Endocrinology, 2019):
“And” between values parts separate entries of the source, which are not always exact repeats. Identical values can stand only once. Like-named read-outs stand apart in the source and are kept apart here. Starred links: 1 amine or outer side, 2 acyl side, 3 side chain; linkers in the order of their positions; H or OH if unused. Non-standard residues stand in square brackets, D forms with d. Residues, ends and D or L forms follow the SMILES beside them. NMeF = CN[C@@H](Cc1ccccc1)C(=O)O; pGlu = O=C1CC[C@@H](C(=O)O)N1; Suc = O=C(CCC(=O)[*:2])[*:1]

How the values were obtained:
tiTac3ra [1] = target: T1, tiTac3ra (Oreochromis niloticus, UniProt A0A075QPN8); assay: cell-based; conditions: COS-7 cells, mean ± SEM
T1 sequence (A0A075QPN8 1-415): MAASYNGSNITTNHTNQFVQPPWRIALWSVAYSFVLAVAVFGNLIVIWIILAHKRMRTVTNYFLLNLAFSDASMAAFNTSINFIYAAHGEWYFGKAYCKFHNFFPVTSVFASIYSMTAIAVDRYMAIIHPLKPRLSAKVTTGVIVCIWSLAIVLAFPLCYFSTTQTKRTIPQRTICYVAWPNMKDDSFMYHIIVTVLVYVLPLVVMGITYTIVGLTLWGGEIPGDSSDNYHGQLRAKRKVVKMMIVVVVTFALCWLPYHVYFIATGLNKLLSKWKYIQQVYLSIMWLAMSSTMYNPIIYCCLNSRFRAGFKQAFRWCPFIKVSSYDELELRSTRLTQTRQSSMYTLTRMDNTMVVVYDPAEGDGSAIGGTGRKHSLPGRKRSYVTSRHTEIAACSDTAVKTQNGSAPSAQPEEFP
Excerpt: (§2) Receptor transactivation assays were generally performed according to Biran et al. ([10]). Briefly, in order to study the signaling pathways of the novel fish NKB and NKF analogs, the entire coding sequence of tiTac3ra (GenBank accession no. KF471674), tiTac3rb (GenBank accession no. KF471675), zfTac3ra (GenBank accession no. JF317292) and zfTac3rb (GenBank accession no. JF317293) were inserted into pcDNA3.1 (Invitrogen). To differentiate between the protein kinase A (PKA) and PKC signal transduction pathways, we used a sensitive luciferase (Luc) reporter gene assay. […] Three micrograms of each construct together with three micrograms of a luciferase reporter plasmid were transiently co-transfected into COS-7 cells. […] EC50 values were calculated from dose response curves by means of computerized non-linear curve fitting on baseline-corrected (control) values using Prism version 6 software (GraphPad).

tiTac3rb = tiTac3rb (Oreochromis niloticus, UniProt A0A075QUD7); assay: cell-based; conditions: COS-7 cells, mean ± SEM
Chain of tiTac3rb (A0A075QUD7 1-361): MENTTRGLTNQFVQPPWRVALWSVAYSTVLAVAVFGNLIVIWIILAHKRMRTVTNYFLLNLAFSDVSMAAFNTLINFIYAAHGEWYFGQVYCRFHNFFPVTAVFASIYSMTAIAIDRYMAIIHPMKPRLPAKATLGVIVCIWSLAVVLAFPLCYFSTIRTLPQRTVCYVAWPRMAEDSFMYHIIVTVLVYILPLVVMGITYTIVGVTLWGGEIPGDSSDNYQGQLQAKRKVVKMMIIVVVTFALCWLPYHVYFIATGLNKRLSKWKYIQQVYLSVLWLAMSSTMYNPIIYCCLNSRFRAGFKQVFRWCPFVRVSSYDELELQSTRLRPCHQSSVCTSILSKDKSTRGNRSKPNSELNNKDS
Excerpt: as §2

tiTac3ra [2] = target: T1, tiTac3ra; conditions: read-out: EC50 tiTac3ra SRE; SRE-Luc reporter (PKC/Ca2+), COS-7 cells, mean ± SEM
Excerpt: as §2

female tilapia pituitary = assay: In vivo effect on pituitary gh, fsh and lh mRNA expression (real-time PCR); parameters: species or system Nile tilapia (O. niloticus); conditions: 24 h post IP injection, 100 μg/kg BW
Protocol: Adult female tilapia (BW 89.29 ± 32.93 g) were injected IP with saline, sGnRH analog ([…]; 10 μg/kg BW; [[…],[…]-Net]-mammalian GnRH; Bachem), tiNKB, tiNKF, or their analogs at 100 μg/kg BW (n = 8 fish per group). The fish were bled from the caudal blood vessels into heparinized syringes 1, 2, 4, 8, and 24 h after injection and blood was centrifuged (3,200 rpm for 30 min at 4°C) to obtain plasma samples, which were stored at -20°C until assayed. This time course is according to standard protocols used previously ([28], [29]) to test the effect of GnRH and other hypothalamic neuropeptides on circulating levels of LH, FSH, and GH in tilapia. Blood samples were collected from the caudal vasculature. Three independent experiments were carried out for the in vivo studies. Pituitaries and three parts of the brain [the olfactory bulbs and telencephalon (front brain), the optic tectum and diencephalon (mid brain), and the cerebellum (hind brain)] were harvested at the end of each in vivo experiment, snap-frozen in liquid nitrogen, and stored at -80°C until extraction. Total RNA was extracted by phenol-chloroform using TRIzol reagent (Invitrogen) and precipitated with ethanol, and 1 μg was used as a template for cDNA synthesis using Verso cDNA kit (Thermo Scientific, Waltham, MA). Real-time PCR analysis was performed according to Biran et al. ([10], [20]). The specificity of the amplification was tested at the end of the PCR by melting-curve analysis and sequencing the PCR products.

female tilapia = assay: In vivo effect on GH, FSH and LH plasma levels (ELISA) after IP injection; parameters: species or system Nile tilapia (O. niloticus); conditions: peptides/analogs 100 μg/kg BW
Protocol: Adult female tilapia (BW 89.29 ± 32.93 g) were injected IP with saline, sGnRH analog ([…]; 10 μg/kg BW; [[…],[…]-Net]-mammalian GnRH; Bachem), tiNKB, tiNKF, or their analogs at 100 μg/kg BW (n = 8 fish per group). The fish were bled from the caudal blood vessels into heparinized syringes 1, 2, 4, 8, and 24 h after injection and blood was centrifuged (3,200 rpm for 30 min at 4°C) to obtain plasma samples, which were stored at -20°C until assayed. This time course is according to standard protocols used previously ([28], [29]) to test the effect of GnRH and other hypothalamic neuropeptides on circulating levels of LH, FSH, and GH in tilapia. Blood samples were collected from the caudal vasculature. Three independent experiments were carried out for the in vivo studies. Levels of LH, FSH, and GH in the plasma were measured by specific competitive ELISAs developed for tilapia ([30], [31]) based on recombinant ([…] or rtiGH. Primary antisera was produced against […]β, or rtGH ([31]), and […]βα ([28]) or rtGH was used for generating the standard curves.

huTAC3R (NK3R) = target: T2, huTAC3R (NK3R) (Homo sapiens, UniProt P29371); assay: CRE-/SRE-Luc receptor transactivation reporter assay in COS-7 cells, human TAC3R; format: cell-based; conditions: mean ± SEM
T2 construct: host or cells: COS-7
T2 sequence (P29371 1-465): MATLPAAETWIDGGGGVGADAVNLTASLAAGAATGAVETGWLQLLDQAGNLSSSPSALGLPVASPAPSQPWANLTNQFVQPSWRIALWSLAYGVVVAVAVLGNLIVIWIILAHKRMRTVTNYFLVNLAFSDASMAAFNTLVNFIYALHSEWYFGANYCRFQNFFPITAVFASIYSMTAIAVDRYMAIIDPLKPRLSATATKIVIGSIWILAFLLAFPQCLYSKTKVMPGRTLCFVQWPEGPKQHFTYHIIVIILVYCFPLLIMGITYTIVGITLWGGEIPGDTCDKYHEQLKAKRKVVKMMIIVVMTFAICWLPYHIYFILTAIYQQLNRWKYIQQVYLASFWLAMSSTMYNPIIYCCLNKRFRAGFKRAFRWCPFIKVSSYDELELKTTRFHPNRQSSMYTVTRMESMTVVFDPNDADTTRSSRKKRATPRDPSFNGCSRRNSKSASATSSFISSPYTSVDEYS
Excerpt: (§1) Receptor transactivation assays were generally performed according to Biran et al. ([10]). Briefly, in order to study the signaling pathways of the novel fish NKB and NKF analogs, the entire coding sequence of tiTac3ra (GenBank accession no. KF471674), tiTac3rb (GenBank accession no. KF471675), zfTac3ra (GenBank accession no. JF317292) and zfTac3rb (GenBank accession no. JF317293) were inserted into pcDNA3.1 (Invitrogen). To differentiate between the protein kinase A (PKA) and PKC signal transduction pathways, we used a sensitive luciferase (Luc) reporter gene assay. […] The cDNA clone for human TAC3R was obtained from the Missouri S&T cDNA Resource Center (www.cdna.org). Three micrograms of each construct together with three micrograms of a luciferase reporter plasmid were transiently co-transfected into COS-7 cells. […] EC50 values were calculated from dose response curves by means of computerized non-linear curve fitting on baseline-corrected (control) values using Prism version 6 software (GraphPad).

zfTac3rb = target: T3, zfTac3rb (Danio rerio, UniProt F1R3V0); assay: CRE-/SRE-Luc receptor transactivation reporter assay in COS-7 cells, zebrafish Tac3rb; format: cell-based; conditions: mean ± SEM
T3 sequence (F1R3V0 1-395): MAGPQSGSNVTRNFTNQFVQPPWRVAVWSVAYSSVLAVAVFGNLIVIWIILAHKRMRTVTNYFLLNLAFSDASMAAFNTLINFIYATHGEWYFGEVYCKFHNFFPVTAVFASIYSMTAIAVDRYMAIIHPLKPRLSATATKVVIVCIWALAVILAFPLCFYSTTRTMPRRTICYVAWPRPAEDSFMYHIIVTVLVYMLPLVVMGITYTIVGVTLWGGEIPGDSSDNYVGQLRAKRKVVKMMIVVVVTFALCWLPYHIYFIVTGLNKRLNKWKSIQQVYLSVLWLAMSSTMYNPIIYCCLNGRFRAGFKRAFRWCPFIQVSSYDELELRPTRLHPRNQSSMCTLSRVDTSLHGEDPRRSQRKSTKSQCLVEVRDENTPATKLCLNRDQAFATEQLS
Excerpt: as §1

zfTac3ra = target: T4, zfTac3ra (Danio rerio, UniProt H6A6A7); assay: CRE-/SRE-Luc receptor transactivation reporter assay in COS-7 cells, zebrafish Tac3ra; format: cell-based; conditions: mean ± SEM
T4 sequence (H6A6A7 1-399): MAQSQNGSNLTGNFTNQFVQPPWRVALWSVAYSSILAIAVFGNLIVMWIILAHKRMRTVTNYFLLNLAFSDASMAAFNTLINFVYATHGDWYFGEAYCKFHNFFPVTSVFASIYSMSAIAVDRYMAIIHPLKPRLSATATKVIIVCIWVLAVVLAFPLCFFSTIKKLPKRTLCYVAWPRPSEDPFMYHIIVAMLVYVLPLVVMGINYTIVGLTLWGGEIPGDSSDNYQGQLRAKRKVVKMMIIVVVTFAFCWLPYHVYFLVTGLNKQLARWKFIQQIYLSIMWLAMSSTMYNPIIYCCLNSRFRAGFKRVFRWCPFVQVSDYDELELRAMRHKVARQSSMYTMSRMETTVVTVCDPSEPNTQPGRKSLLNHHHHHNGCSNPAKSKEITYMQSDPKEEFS
Excerpt: as §1

[3] = EC50 tiTac3ra CRE, CRE-Luc reporter (PKA/cAMP)
[4] = EC50 tiTac3rb CRE, CRE-Luc reporter (PKA/cAMP)
[5] = EC50 tiTac3rb SRE, SRE-Luc reporter (PKC/Ca2+)
[6] = EC50 tiTac3ra SRE, SRE-Luc reporter (PKC/Ca2+)
[7] = SRE-Luc reporter (PKC/Ca2+), read-out: EC50 huTAC3R (NK3R) SRE

| SMILES | EC50 (tiTac3ra [1]; [3]) | EC50 (tiTac3rb; [4]) [nM] | EC50 (tiTac3rb; [5]) [nM] | EC50 (tiTac3ra [2]) [nM] | GH mRNA expression in pituitary relative to control (female tilapia pituitary) | LHβ mRNA expression in pituitary relative to control (female tilapia pituitary) | time post-injection at which plasma FSH was first increased (female tilapia) [h] | time post-injection at which plasma LH was first increased (female tilapia; sGnRHa 10 μg/kg BW) [h] | EC50 (tiTac3ra [1]; [6]) [nM] | EC50 (huTAC3R (NK3R); [7]) [nM] | EC50 (zfTac3rb; CRE-Luc reporter (PKA/cAMP), read-out: EC50 zfTac3rb CRE) [nM] | EC50 (zfTac3rb; SRE-Luc reporter (PKC/Ca2+), read-out: EC50 zfTac3rb SRE) [nM] | EC50 (zfTac3ra; CRE-Luc reporter (PKA/cAMP), read-out: EC50 zfTac3ra CRE) | EC50 (zfTac3ra; SRE-Luc reporter (PKC/Ca2+), read-out: EC50 zfTac3ra SRE) [nM] | FSHβ mRNA expression in pituitary relative to control (female tilapia pituitary) | time post-injection at which plasma GH was first increased (female tilapia) [h] | duration of increased plasma LH post-injection (female tilapia; sGnRHa 10 μg/kg BW) | EC50 (huTAC3R (NK3R); CRE-Luc reporter (PKA/cAMP), read-out: EC50 huTAC3R (NK3R) CRE) [nM] |
| --- | --- | --- | --- | --- | --- | --- | --- | --- | --- | --- | --- | --- | --- | --- | --- | --- | --- | --- |
| CSCC[C@H](NC(=O)[C@H](CC(C)C)NC(=O)CNC(=O)[C@H](Cc1ccccc1)N(C)C(=O)[C@H](Cc1ccccc1)NC(=O)[C@H](CC(=O)O)NC(=O)CCC(=O)O)C(N)=O [Senktide] (Suc-DF[NMeF]GLM-NH2) | 14.1 ± 0.61 nM | 3541 ± 1.47 | 50.16 ± 0.17 | 128 ± 35 |  |  |  |  |  |  |  |  |  |  |  |  |  |  |
| CSCC[C@H](NC(=O)[C@H](CC(C)C)NC(=O)CNC(=O)[C@H](C(C)C)N(C)C(=O)[C@H](Cc1ccccc1)NC(=O)[C@H](CO)NC(=O)[C@H](CC(=O)O)NC(=O)CCC(=O)O)C(N)=O [NKF analog, Succ-Asp-Ser-Phe-N(Me)Val-Gly-Leu-Met-NH2] | 2.57 ± 0.33 nM | 160.6 ± 0.42 | 74.89 ± 0.66 |  | increased | increased | 2 | 1 | 1.73 ± 0.46 | 43.2 ± 1.06 | 2.69 ± 0.38 | 25.74 ± 0.24 | 0.47 nM and 0.474 nM | 1.15 ± 0.4 |  |  |  |  |
| CC[C@H](C)[C@H](NC(=O)[C@H](Cc1ccccc1)NC(=O)[C@@H](NC(=O)[C@H](CC(=O)O)NC(=O)[C@H](CC(=O)O)NC(=O)[C@H](CCSC)NC(=O)[C@@H]1CCC(=O)N1)[C@@H](C)CC)C(=O)NCC(=O)N[C@@H](CC(C)C)C(=O)N[C@@H](CCSC)C(N)=O [tiNKB] ([pGlu]MDDIFIGLM-NH2) | 0.8 nM and 0.81 nM | 26.5 ± 0.27 |  |  | increased | increased | 2 | 2 | 7.41 ± 0.44 | 0.02 |  |  |  |  | increased | 1 | up to 4 h | 3.38 ± 0.42 |
